From US7767240B2, “Microbiological control in poultry processing” (priority 2001, dated 2010)

How the values were obtained:
total aerobic bacteria = assay: Whole bird total aerobic bacteria, chill tank soup at pH 7, 8, 9 (Example 3); format: cell-based; details: 50 birds per treatment
Experimental: This group of tests was conducted to determine the effect of Clorox® bleach, Aquatize® biocide, and 1,3-dibromo-5,5-dimethylhydantoin (DBDMH) on carcass bacteria (Escherichia coli field strain) residual after 1,5-hour in a chill tank “soup”. Tests were conducted with soups at pH 7, pH 8 and pH 9 (adjusted by trisodium phosphate) for whole bird bacteria counts. Tests at pH 8 were conducted for individual bacteria counts.
In general the tests involved normal processing of 56-day-old birds and immersing the carcasses first in a warm bath containing 10^4 per mL Escherichia coli, 10^4 per mL Salmonella enteritidis, 10^4 per mL Pseudomonas aeruginosa, 10^4 per mL Campylobacter jejuni, and 10^4 per mL spoilage bacteria each from […] strains (Listeria monocytogenes and Shigella sonnei). The carcasses were then immersed in a chill tank “soup”, containing normal organic fluids (blood, fat, skin, and meat particles) and containing the microbiocides on the test.
The procedure used for whole bird wash sampling was as follows: • 1. All samples were kept at ≦50 degrees Fahrenheit following collection. • 2. Microbiological analyses of samples began within 24 hours of sample collection. • 3. Information on the individual sample identification, date of collection, time of collection (phase during shift), treatment group and location of sample point were recorded on each sample bottle. • 4. At each defined sample time, carcasses were taken individually from the processing line wearing latex or rubber gloves. The gloves were rinsed with alcohol between each collection. • 5. Any excess fluid was drained off from the carcass. Each individual carcass was transferred to a sterile stomacher bag. • 6. To each carcass contained in the sterile stomacher bag, 400 mL of Butterfield's Phosphate Diluent (BPD) was added while making sure to pour the BPD into the inside of the carcass cavity. The carcass was rinsed inside and out with a rocking motion for one minute (ca. 35 RPM). This was best done by grasping the broiler carcass with one hand and the closed top of the bag with the other then rocking with a reciprocal motion in a 18-24 inch arc, assuring that all surfaces (interior and exterior of the carcass) were rinsed. • 7. The rinse solutions from each stomacher bag was transferred into the sample bottles, taking care to ensure that the information on the date of collection, time of collection (phase during shift), treatment group and location of sampler point matched that of the sample. • 8. Each bottle was sealed with parafilm and placed into a styrene container with crushed or dry ice or frozen freezer packs for overnight delivery to a testing laboratory. • 9. All filled styrene containers were held in a chilled (not below freezing) area until within 1 to 2 hours of courier collection for shipment.
Aerobic plate counts—Counting rules according to BAM 8th ed., Chapter 3.
In greater detail the trial events and experimental design used in this group of tests were as follows: • a) Test microorganisms used were: • Escherichia coli ATCC 11229 • Pseudomonas aeruginosa ATCC 15442 • Salmonella enteritidis ATCC 13076 • Shigella sonnei ATCC 9290 • Listeria monocytogenes ATCC 7644 • Campylobacter jejuni ATCC 29428 • b) Test Procedure: All test strains were grown individually at 35° C. for 24 hours in the media specified in Table 12. Cells were harvested by centrifugation at 10,000×g for 10 minutes and washed twice with Butterfield's Phosphate Buffer (BPB of pH 7.2). Cells were resuspended in BPB to obtain a cell suspension of approximately 1.0×10^8 CFU/mL for each microorganism. The target inoculum levels were approximately 10^6 CFU/mL in the final test solutions. In the cases of S. enteritidis and P. aeruginosa the species were washed by pouring into prepared sterile centrifuge tubes with cheesecloth filters. […]

[1] = tested on: Escherichia coli field strain; assay: Chill water bacteria reduction (Example 2); format: cell-based
Experimental: The trial events and experimental design used were as follows: • a) For all treatments a total of 190 birds were processed in a normal fashion. Each treatment involved use of 10 birds. • b) A warm (100° F.) bath was prepared containing 5×10^4 DelMarVa (Delaware-Maryland farm area) field Escherichia coli stain bacteria per mL. At least 200 mL of total bath fluid was provided for each bird. • c) All birds (both controls and treated) were randomly immersed into the warm bath. Both the inside and outside carcass areas were immersed to assure complete coverage. • d) Each separate chill tank water solution (normal tap water adjusted pH to 8.5, ice added to produce temperatures of <45° F.) contained 2×10^3 per mL bacteria. • e) The chill tank water solutions (at least 750 mL each) were be prepared for each disinfecting treatment, and birds were immersed for a period of 1.5 hours. • f) Each 10 minutes during the 1.5 hour chilling period, the birds were completely lifted out of solution and then reimersed in the solution. After the 1.5 hour chilling period, the birds were taken from the chill water and drained for 30 seconds, then promptly (within 5 minutes) placed into a sterile whole bird stomacher bag containing 400 mL diluent (Butterfield's Phosphate Diluent) bacteria collection. • g) Diluent (400 mL) was added to each carcass contained in a sterile stomacher bag while making sure to pour the diluent into the inside of the abdominal cavity. The carcass was rinsed inside and out with a rocking motion for one minute (ca. 35 RPM). […] After the fluids had been diluted, 0.1 mL of fluid was be placed on a MacConkey agar plate and bacteria counts determined. In cases where the goal of a 25-250 count on the plate was not achieved, another dilution and replating were conducted. • j) After all carcasses for each treatment had been dipped, water sample bacteria were determined. • k) Total bacteria per bird were calculated. […]

SMILES: CC1(C)C(=O)N(Br)C(=O)N1Br [DBDMH, 1,3-dibromo-5,5-dimethylhydantoin]
- Whole Bird Total Aerobic Bacteria (% Reduction) (total aerobic bacteria; Water pH 7, 10 ppm Cl2 equivalent): 85%
- Whole Bird Total Aerobic Bacteria (% Reduction) (total aerobic bacteria; Water pH 7, 20 ppm Cl2 equivalent): 99%
- Whole Bird Total Aerobic Bacteria (% Reduction) (total aerobic bacteria; Water pH 8, 10 ppm Cl2 equivalent): 82%
- Whole Bird Total Aerobic Bacteria (% Reduction) (total aerobic bacteria; Water pH 8, 20 ppm Cl2 equivalent): 98%
- Whole Bird Total Aerobic Bacteria (% Reduction) (total aerobic bacteria; Water pH 9, 10 ppm Cl2 equivalent): 78%
- Whole Bird Total Aerobic Bacteria (% Reduction) (total aerobic bacteria; Water pH 9, 20 ppm Cl2 equivalent): 96%
- Mean Chill Water Bacteria Reduction (%) ([1]; 50 ppm Cl2 (equivalent)): 99.9999%
- Mean Chill Water Bacteria Reduction (%) ([1]; 100 ppm Cl2 (equivalent)): 99.9999%
- Mean Chill Water Bacteria Reduction (%) ([1]; 150 ppm Cl2 (equivalent)): 99.9999%
